Here are results for four compounds from patent US8236858B2, “Substituted aryl-indole compounds and their kynurenine/kynuramine-like metabolites as therapeutic agents” (Neurim Pharmaceuticals (1991) Ltd., priority 2006, dated 2012).

pIC50: −log10 of the molar value.

One test has as its system MPTP-treated mice. The test can be described thus: Anti-Parkinsonian activity in MPTP-treated mice with a sub threshold dose of L-DOPA (motor activity counts). It is filed as in vivo, C57 BL/6 mice. To be noted: for LOCOMOTION / REARING / TOTAL ACTIVITY: MPTP-treated mice (2×40 mg/kg s.c.), compound 3 mg/kg orally + 5 mg/kg L-Dopa s.c., counts with Vehicle (no MPTP) = 100%. How it is done:
Animals: six month old male C57 BL/6 mice, weighing 22-25 g were used. Following arrival at the laboratory, the mice were allowed to acclimatize for two weeks in a room with controlled temperature (21±1° C.), and a constant light-dark schedule (12 hr on/12 hr off, lights on between 06.00 and 18.00 hrs). Free access to food and water was maintained throughout. They were housed in groups of 12 animals and tested only during the hours of light (08.00-15.00 hrs). All testing was performed in a normally lighted room.
Behavioural measurements and apparatus: An automated device, consisting of macrolon rodent test cages (40×25×15 cm), each placed within two series of infra-red beams (at two different heights, one low and one high, 2 and 8 cm, respectively, above the surface of the sawdust, 1 cm deep), was used to measure spontaneous and/or drug-induced motor activity of 1-methyl 4-phenyl 1,2,3,6-tetrahydropyridine (MPTP) and control mice. The following parameters were measured: LOCOMOTION was measured by the low grid of infrared beams. Counts were registered only when the mouse in the horizontal plane, ambulating around the test-cage. REARING was registered throughout the time when at least one high level beam was interrupted, i.e. the number of counts registered was proportional to the amount of time spent rearing. TOTAL ACTIVITY was measured by a sensor (a pick-up similar to a gramophone needle, mounted on a lever with a counterweight) with which the test cage was constantly in contact. The sensor registered all types of vibration received from the test cage, such as those produced both by locomotion and rearing as well as shaking, tremors, scratching and grooming.
Behavioral measurements (locomotion, rearing and total activity): Twelve days after MPTP injections (2×40 mg/kg, s.c., 24 hr interval), the mice were administered orally with the different compounds at 3 mg/kg or vehicle (0.1% Tween-80 in 1% methylcellulose) and immediately thereafter placed in the activity test chambers and their motor behaviors were monitored for 60 min. After 60 min, the mice were injected with 5 mg/kg L-Dopa (s.c) and then replaced in the test chamber and activity measurements maintained for an additional 300 min.
Table 2 presents the locomotion, rearing and total activity counts of MPTP-treated and control mice administered either tested substances or vehicle administered with a sub threshold dose of L-Dopa.

The target of a further test is T1, GSK3β (Homo sapiens, UniProt P49841).
T1 construct: made in house; host or cells: insect Sf9 cells
Put plainly: Evaluation of GSK3β activity: inhibition of purified GSK3β, [γ-32P]ATP / GS-2 peptide filter assay. As to conditions: for pIC50: purified GSK3β expressed in Sf9 cells, 15 μM ATP, GS-2 peptide substrate, 30 min at 30° C.; for inhibiting activity on GSK3β activity (in words): summary of Table 1. Format: biochemical. How it is done:
Compounds were evaluated for inhibition against purified GSK3β. GSK3β was expressed in and purified from insect Sf9 cells. Compounds (10 μM) were assayed; following a 1/100 dilution of the enzyme in 1 mg/ml BSA, 10 mM DTT, with 5 μl of 40 μM GS-2 peptide as a substrate, in a buffer, in the presence of 15 μM [γ-^32P]ATP (3000 Ci/mmol; 1 mCi/ml) in a final volume of 30 μl. After 30-min incubation at 30° C., 25-μl aliquots of supernatant were spotted onto 2.5×3 cm pieces of Whatman P81 phosphocellulose paper, and, 20 s later, the filters were washed five times (for at least 5 min each time) in a solution of 10 ml of phosphoric acid/liter of water. The wet filters were counted in the presence of 1 ml of scintillation fluid.

In a further test the test system is NMDA-activated currents. The test can be described thus: Electrophysiological characterisation of NMDA-activated currents in freshly isolated hippocampal neurones (whole-cell patch clamp). It is filed as cell-based, Wistar rats. As to conditions: for % Inhibition Peak Current / % Inhibition Steady State Current: 1 μM substance, 10 μM glycine, 300 μM L-aspartate, holding potential −70 mV, mean of at least 4 cells; for blocking activity on NMDA-activated currents (in words): summary of Table 3, 1 μM. On the procedure: Isolation of hippocampal neurons: Wistar rats (12-14 days) were decapitated without anesthesia and the hippocampus was removed. It was manually cut into slices (0.2-0.4 mm), in a solution containing (mM): 150 NaCl; 5 KCL; 1.25 NaH2PO4; 2 CaCl2; 2 MgCl2; 26 NaHCO3; 20 glucose. Slices were preincubated in this solution for 30 min at room temperature. The enzymatic treatment proceeded in the same solution with lower Ca^2+ concentration (0.5 mm) containing 0.4 mg/ml protease from aspergillus oryzae. The incubation in the enzyme solution proceeded at 32° C. within 10 min. Slices were kept subsequently in enzyme-free solution containing normal Ca^2±concentration and used within 6-8 h for obtaining isolated neurons. Throughout the entire procedure the solutions were continuously saturated with a 95% O2 and 5% CO2 gas mixture to maintain pH of 7.4. For cell dissociation the slice was transferred into the extracellular solution containing (mM): 150 NaCl; 5 KCl; 2 CaCl2; 10 n-2-hydroxyethylpiperazine-n′-2-ethanesulphonic acid (Hepes); pH adjusted with NaOH to 7.4. Single cells were isolated from CA and CA3 zones of hippocampal slices by vibrodissociation method. […] After isolation they were usually suitable for the recording for 1-2 h.
Salines and chemicals: The contents of the extracellular solution was as follows (in mM): 130 NaCl, 5KCl, 2CaCl2, 20 n-2-hydroxyethylpiperazine-n′-2-ethansulfonic acid (Hepes); 0.1 μm TTX, 10 μm glycine, […] 1-aspartate; pH was adjusted with NaOH to 7.4.
The contents of the intracellular solution were as follows (in mM): 110 CsF, 20 Tris-HCl (pH=7.2). L-aspartate and glycine solutions were prepared on the day of experiment.
The tested substances were dissolved in DMSO.
Current recording and data analysis: The drug-containing solutions were applied by the fast “concentration clamp” method using “jumping table” set-up. The currents were recorded with patch clamp technique in the whole-cell configuration. Recording of the currents was performed using EPC-7 L/M patch-clamp amplifier.
NMDA-activated currents: The currents were filtered at 3 kHz (three-pole active Bessel filter) digitally sampled at the rate 6000 μs per point for NMDA activated currents. NMDA-induced transmembrane currents were measured in the presence of 10 μM glycine and 300 μM L-aspartate in the control and test solutions. The currents were recorded at holding potential −70 mV.
Calculations: The inhibition of current at 1 μM of the substance was averaged at least for 4 cells. The effect of substance was measured as the mean ratio I/Io where I was the current under the action of substance and Io was the current in control conditions.
Background: Patch clamp records ionic current or voltage across a cell membrane.

T1 sequence (P49841 whole entry, species assumed): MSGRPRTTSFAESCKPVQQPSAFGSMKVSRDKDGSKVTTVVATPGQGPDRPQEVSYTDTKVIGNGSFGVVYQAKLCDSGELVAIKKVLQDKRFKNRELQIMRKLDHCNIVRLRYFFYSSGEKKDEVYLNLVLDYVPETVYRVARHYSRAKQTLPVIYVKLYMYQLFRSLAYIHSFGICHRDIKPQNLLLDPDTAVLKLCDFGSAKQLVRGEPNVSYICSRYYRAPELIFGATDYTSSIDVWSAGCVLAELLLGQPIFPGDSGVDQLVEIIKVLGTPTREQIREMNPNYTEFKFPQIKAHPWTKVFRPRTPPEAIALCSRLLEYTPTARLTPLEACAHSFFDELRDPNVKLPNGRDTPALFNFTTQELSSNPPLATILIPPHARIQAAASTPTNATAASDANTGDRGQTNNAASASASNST

One may read the pIC50 as the negative decadic logarithm of the IC50, by convention in mol/L. A higher pIC50 goes with a small IC50. On to `O=C(O)c1cc([N+](=O)[O-])ccc1NCCc1c[nH]c2ccccc12` [N-(2-Carboxy-4-nitrophenyl)-tryptamine], for which, in the test with MPTP-treated mice, the LOCOMOTION turned out to be 16%, the REARING is listed as 25% and the “TOTAL ACTIVITY” value stood at 45%. Moreover, on GSK3β, the negative-log IC50 (pIC50) was 4.85 and the “inhibiting activity on GSK3β activity (in words)” value (from here on “inhibiting activity”) is “significant inhibiting activity”. In the test on NMDA-activated currents, the “% Inhibition Peak Current” value amounted to 76.7%, the “% Inhibition Steady State Current” value is on record as 70.4% and the “blocking activity on NMDA-activated currents (in words)” value (“blocking activity” below) was “significant blocking activity”.

Regarding `COc1ccc2[nH]cc(CCNc3ccc(C(=O)O)cc3[N+](=O)[O-])c2c1` [N-(4-Carboxy-2-nitrophenyl)-5-methoxytryptamine], in the test on MPTP-treated mice, the LOCOMOTION is reported as 22%, the REARING was determined as 30% and the “TOTAL ACTIVITY” value was found to be 46%. Further, on GSK3β, the pIC50 was 4.66 and the “inhibiting activity” value was “significant inhibiting activity”. For the same compound, in the test on NMDA-activated currents, the “% Inhibition Peak Current” value is reported as 89.92%, the “% Inhibition Steady State Current” value is 74.14% and the “blocking activity” value was “significant blocking activity”.

Consider `N#Cc1cc([N+](=O)[O-])ccc1NCCc1c[nH]c2ccccc12` [N-(2-cyano-4-nitrophenyl)-tryptamine], for which, in the test with MPTP-treated mice (3 mg/kg, combined with a sub-threshold (inactive) dose of L-Dopa), the “reversal of the motor deficits of MPTP-treated mice (in words)” value is reported as “significantly reversed the motor deficits”. Moreover, in the test with MPTP-treated mice, the LOCOMOTION worked out at 52%, the REARING is on record as 98% and the “TOTAL ACTIVITY” value amounted to 73%. Further, on GSK3β, the pIC50 is 4.90 and the “inhibiting activity” value is recorded as “significant inhibiting activity”. In addition, in the test on NMDA-activated currents, the “% Inhibition Peak Current” value came to 83.1%, the “% Inhibition Steady State Current” value turned out to be 82.44% and the “blocking activity” value is “significant blocking activity”.

Consider `COc1ccc2[nH]cc(CCNc3ccc(C#N)c(C#N)c3)c2c1` [N-(3,4-dicyanophenyl)-5-methoxytryptamine], for which, in the test on MPTP-treated mice, the LOCOMOTION is recorded as 19%, the REARING worked out at 27% and the “TOTAL ACTIVITY” value is 48%. Moreover, at GSK3β, the pIC50 is 4.77 and the “inhibiting activity” value is recorded as “significant inhibiting activity”. Moreover, in the test with NMDA-activated currents, the “% Inhibition Peak Current” value was determined as 84.4%, the “% Inhibition Steady State Current” value came to 78.4% and the “blocking activity” value is recorded as “significant blocking activity”.
